Assays:
[1] = molecular target: Norepinephrine transporter (Rattus norvegicus, UniProt Q9WTR4); assay: Binding affinity against Norepinephrine transporter using [3H]nisoxetine in midbrain of rat; format: tissue-based
[2] = molecular target: Sodium-dependent serotonin transporter (Rattus norvegicus, UniProt P31652); assay: Binding affinity against serotonin transporter using [3H]paroxetine in rat frontal cortex; format: tissue-based
[3] = molecular target: T1, Sodium-dependent dopamine transporter (Rattus norvegicus, UniProt P23977); assay: Binding affinity against Dopamine transporter using [3H]WIN-35 428 in rat striatum; format: tissue-based
[4] = molecular target: T1, Sodium-dependent dopamine transporter; assay: Ability to inhibit [3H]dopamine uptake into rat striatal synaptosomes; format: subcellular, Brain
[5] = molecular target: T1, Sodium-dependent dopamine transporter; assay: Ability to inhibition uptake of […]

Chain of Sodium-dependent serotonin transporter (P31652 whole entry): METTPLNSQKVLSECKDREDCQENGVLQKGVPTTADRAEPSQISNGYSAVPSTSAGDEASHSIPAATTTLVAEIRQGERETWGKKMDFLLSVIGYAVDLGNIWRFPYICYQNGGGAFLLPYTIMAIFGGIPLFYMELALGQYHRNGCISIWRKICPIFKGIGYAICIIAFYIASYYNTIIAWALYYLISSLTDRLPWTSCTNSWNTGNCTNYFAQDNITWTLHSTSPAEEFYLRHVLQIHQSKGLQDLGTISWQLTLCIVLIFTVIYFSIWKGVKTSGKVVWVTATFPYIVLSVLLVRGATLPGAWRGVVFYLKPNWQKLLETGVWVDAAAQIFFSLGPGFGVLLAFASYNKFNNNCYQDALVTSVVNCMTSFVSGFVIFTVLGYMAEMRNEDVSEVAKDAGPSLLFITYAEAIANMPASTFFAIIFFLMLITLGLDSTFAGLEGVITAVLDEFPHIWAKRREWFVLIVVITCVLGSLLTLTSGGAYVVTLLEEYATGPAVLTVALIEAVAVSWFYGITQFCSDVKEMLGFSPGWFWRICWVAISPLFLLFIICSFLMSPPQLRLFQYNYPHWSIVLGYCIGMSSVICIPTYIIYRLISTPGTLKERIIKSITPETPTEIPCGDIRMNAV
Chain of Norepinephrine transporter (Q9WTR4 whole entry): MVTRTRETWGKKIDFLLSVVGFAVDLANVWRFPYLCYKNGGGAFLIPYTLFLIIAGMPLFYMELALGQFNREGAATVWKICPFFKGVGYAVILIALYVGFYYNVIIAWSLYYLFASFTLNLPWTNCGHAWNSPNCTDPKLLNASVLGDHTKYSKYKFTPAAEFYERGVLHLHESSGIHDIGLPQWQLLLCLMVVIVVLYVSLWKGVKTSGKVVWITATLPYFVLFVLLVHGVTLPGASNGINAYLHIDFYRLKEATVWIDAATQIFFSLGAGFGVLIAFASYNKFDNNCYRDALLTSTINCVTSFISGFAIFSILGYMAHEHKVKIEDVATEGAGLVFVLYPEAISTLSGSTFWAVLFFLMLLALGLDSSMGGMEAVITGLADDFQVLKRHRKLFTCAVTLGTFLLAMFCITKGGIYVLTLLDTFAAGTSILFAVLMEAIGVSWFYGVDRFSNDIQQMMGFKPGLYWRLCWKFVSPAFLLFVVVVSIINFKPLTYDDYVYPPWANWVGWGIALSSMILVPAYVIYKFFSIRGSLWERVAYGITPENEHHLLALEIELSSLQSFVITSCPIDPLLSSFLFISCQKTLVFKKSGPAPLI
T1 sequence (P23977 whole entry): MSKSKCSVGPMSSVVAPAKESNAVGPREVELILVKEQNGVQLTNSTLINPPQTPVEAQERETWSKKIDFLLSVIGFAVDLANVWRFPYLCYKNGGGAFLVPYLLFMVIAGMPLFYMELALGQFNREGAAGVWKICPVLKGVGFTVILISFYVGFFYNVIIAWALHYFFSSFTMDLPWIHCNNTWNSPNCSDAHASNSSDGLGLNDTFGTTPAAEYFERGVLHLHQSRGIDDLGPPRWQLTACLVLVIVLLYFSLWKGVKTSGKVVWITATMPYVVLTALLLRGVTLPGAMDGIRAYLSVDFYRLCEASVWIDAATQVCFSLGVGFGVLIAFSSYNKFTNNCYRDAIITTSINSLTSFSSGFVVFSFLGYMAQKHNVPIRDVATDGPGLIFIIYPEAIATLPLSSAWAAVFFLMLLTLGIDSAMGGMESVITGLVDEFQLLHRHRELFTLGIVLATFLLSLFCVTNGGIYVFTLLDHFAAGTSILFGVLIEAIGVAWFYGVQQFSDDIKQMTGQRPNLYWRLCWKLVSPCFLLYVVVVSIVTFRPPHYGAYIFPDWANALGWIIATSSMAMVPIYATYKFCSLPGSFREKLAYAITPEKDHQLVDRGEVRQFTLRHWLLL

Row | SMILES | IC50 [1] | IC50 [2] | IC50 [3] | Ki [4] | Ki [5]
1 | COC(=O)[C@@H]1C2CC[C@H](C[C@@H]1c1ccc(C)cc1)N2C | 60 nM | – | – | – | –
2 | Cc1ccc(C2C[C@H]3CCC([C@H]2c2cc(-c4ccccc4)no2)N3C)cc1 (some centres not stated) | 398 nM | 5110 nM | 1.58 nM | – | –
3 | CN1C2CC[C@@H]1CC(c1ccc(Cl)cc1)[C@@H]2c1ncc(-c2ccccc2)s1 (some centres not stated) | 8560 nM | 10300 nM | 5.71 nM | – | –
4 | Cc1cc([C@H]2C(c3ccc(Cl)cc3)C[C@H]3CCC2N3C)on1 (some centres not stated) | 181 nM | 572 nM | 0.59 nM | – | –
5 | CN1C2CCC1[C@@H](c1nnc(-c3ccccc3)s1)C(c1ccc(Cl)cc1)C2 (some centres not stated) | 4140 nM | 18400 nM | 15.3 nM | – | –
6 | Cc1ccc(C2C[C@H]3CCC([C@H]2c2nn[nH]n2)N3C)cc1 (some centres not stated) | 32500 nM | 43600 nM | 1560 nM | – | –
7 | CN1C2CC[C@@H]1CC(c1ccc(Cl)cc1)[C@@H]2c1nnn[nH]1 (some centres not stated) | 17400 nM | 5460 nM | – | – | –
8 | Cc1ccc(C2C[C@H]3CCC([C@H]2c2nnc(C)o2)N3C)cc1 (some centres not stated) | 253 nM | 4890 nM | 4.45 nM | – | –
9 | CN1C2CC[C@@H]1CC(c1ccc(Cl)cc1)[C@H]2c1nc2ccccc2s1 (some centres not stated) | 59500 nM | 5210 nM | 188 nM | – | –
10 | CN1C2CC[C@@H]1CC(c1ccc(Cl)cc1)[C@@H]2c1nnc(-c2ccccc2)o1 (some centres not stated) | 929 nM | 3300 nM | 12.6 nM | 18.7 nM | –
11 | Cc1ccc(C2C[C@H]3CCC([C@H]2C(=O)Oc2ccccc2)N3C)cc1 (some centres not stated) | 5800 nM | 24500 nM | 3.26 nM | – | –
12 | Cc1ccc(C2C[C@H]3CCC([C@@H]2c2nnc(-c4ccccc4)o2)N3C)cc1 (some centres not stated) | 48700 nM | 65000 nM | 523 nM | – | –
13 | Cc1ccc(C2C[C@H]3CCC([C@H]2c2ncc(-c4ccccc4)o2)N3C)cc1 (some centres not stated) | 677 nM | 1700 nM | 35.4 nM | – | –
14 | CN1C2CC[C@@H]1CC(c1ccc(Cl)cc1)[C@@H]2c1nc2ccccc2s1 (some centres not stated) | 403 nM | 1120 nM | 1.37 nM | – | –
15 | CN1C2CCC1[C@@H](c1nc(-c3ccccc3)no1)C(c1ccc(Cl)cc1)C2 (some centres not stated) | 245 nM | 195 nM | 1.62 nM | 0.59 nM | –
16 | Cc1ccc(C2C[C@H]3CCC([C@H]2c2nnc(-c4ccccc4)s2)N3C)cc1 (some centres not stated) | 24300 nM | 51500 nM | 35.9 nM | – | –
17 | CN1C2CC[C@@H]1CC(c1ccc(Cl)cc1)[C@@H]2C(=O)O (some centres not stated) | > 200000 nM | 59500 nM | 2070 nM | – | –
18 | CN1C2CC[C@@H]1CC(c1ccc(I)cc1)[C@@H]2c1cc(-c2ccccc2)no1 (some centres not stated) | 868 nM | 100 nM | 2.57 nM | – | –
19 | CN1C2CC[C@@H]1CC(c1ccc(Cl)cc1)[C@H]2c1nnc(-c2ccccc2)o1 (some centres not stated) | 286000 nM | 19200 nM | 1100 nM | – | –
20 | CN1C2CC[C@@H]1CC(c1ccc(Cl)cc1)[C@@H]2c1cc(-c2ccccc2)no1 (some centres not stated) | 504 nM | 2420 nM | 1.28 nM | 2.08 nM | –
21 | Cc1ccc(C2C[C@H]3CCC([C@H]2c2nnc(-c4ccccc4)o2)N3C)cc1 (some centres not stated) | 1310 nM | 23300 nM | 47.5 nM | – | –
22 | CN1C2CCC1[C@@H](c1ncc(-c3ccccc3)o1)C(c1ccc(Cl)cc1)C2 (some centres not stated) | 496 nM | 1120 nM | 19.7 nM | 19 nM | –
23 | Cc1ccc(C2C[C@H]3CCC([C@H]2c2cc(C)no2)N3C)cc1 (some centres not stated) | 254 nM | 3820 nM | 0.93 nM | – | –
24 | Cc1ccc(C2C[C@H]3CCC([C@H]2c2nc(-c4ccccc4)no2)N3C)cc1 (some centres not stated) | 60 nM | 1070 nM | 2.33 nM | – | –
25 | Cc1cc([C@H]2C(c3ccc(I)cc3)C[C@H]3CCC2N3C)on1 (some centres not stated) | 67.9 nM | 36.4 nM | 0.73 nM | – | –
26 | CN1C2CC[C@@H]1CC(c1ccc(Cl)cc1)[C@@H]2C(=O)Oc1ccccc1 (some centres not stated) | 2950 nM | 2300 nM | 1.98 nM | – | 5.25 nM
27 | Cc1noc([C@H]2C(c3ccc(Cl)cc3)C[C@H]3CCC2N3C)n1 (some centres not stated) | 363 nM | 2580 nM | – | – | –

Reference: ChEMBL document CHEMBL1129370, “Synthesis, ligand binding, and quantitative structure-activity relationship study of 3 beta-(4'-substituted phenyl)-2 beta-heterocyclic tropanes: evidence for an electrostatic interaction at the 2 beta-position” (J Med Chem, 1996)
